By IC50 is commonly meant the concentration that gives 50% inhibition.

Counter-ions that a name gives are not always drawn.

Results on 37 molecules are retold here after patent US8853207B2 (Development Center for Biotechnology, priority 2012, dated 2014).

For the test, the target named is FLT3 kinase (FLT3 kinase domain alone, Upstate) (Homo sapiens (Human), UniProt P36888). The experiment in a line: FLT3 kinase assay ([33P] incorporation into substrate). Format: biochemical. The following applies: 100 μM ATP, 30° C., 30 minutes; read-out: IC50 against FLT3. As to the method: Inhibition of FLT3 kinase activity by compounds disclosed herein was quantified by measuring the amount of [^33P] incorporated into the substrate in the presence of a test compound. Briefly, a reaction mixture of 25 μL final volume containing 5 ng of FLT3 kinase (FLT3 kinase domain alone, Upstate), 5 μg of the substrate [(Poly (Glu-Tyr, 4:1), Sigma], kinase reaction buffer (20 mM MOPS pH 7.0, 1 mM EDTA, 5% glycerol, 0.01% Brij-35, 0.1% β-mercaptoethanol, 1 mg/mL BSA, 100 μM ATP, 0.1 μCi per well [^33P]-γ-ATP (2,500-3,000 Ci/mmol)), and a test compound (diluted from 9 μM to the desired final concentration by 4% DMSO) or DMSO (as the control) was incubated at 30° C. for 30 minutes. The reaction was stopped by adding 5 μL of 3% phosphoric acid solution. The resultant solution (30 μL) was later harvested by a UniFilter Plate GF/B (PerkinElmer) followed by adding 30 μL of the scintillation cocktail (MicroScint 20, PerkinElmer) to the well. The radioactivity retained on the filter membrane was measured by a luminescence counter (PerkinElmer). The results were analyzed by using linear regression software (GraphPad Prism 4; GraphPad Software Inc.).
Sequence of FLT3 kinase (FLT3 kinase domain alone, Upstate) (P36888 610-943): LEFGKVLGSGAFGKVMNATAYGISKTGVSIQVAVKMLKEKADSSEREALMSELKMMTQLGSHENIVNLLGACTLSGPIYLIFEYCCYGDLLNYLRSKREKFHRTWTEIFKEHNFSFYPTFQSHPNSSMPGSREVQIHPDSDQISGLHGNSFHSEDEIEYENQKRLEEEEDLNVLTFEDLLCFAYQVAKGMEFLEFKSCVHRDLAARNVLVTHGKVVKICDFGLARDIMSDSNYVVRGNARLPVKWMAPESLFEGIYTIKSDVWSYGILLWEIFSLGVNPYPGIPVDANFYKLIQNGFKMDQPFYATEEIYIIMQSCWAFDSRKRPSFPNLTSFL
For `FC(F)(F)c1ccccc1Nc1n[nH]c2c1Cc1sccc1-2` [Example-42, (4,7-Dihydro-1-thia-4,5-diaza-cyclopenta[a]pentalen-6-yl)-(2-trifluoromethyl-phenyl)-amine], the IC50 is > 1000 nM.

Take `FC(F)(F)c1cc(-c2n[nH]c3c2Cc2sccc2-3)cc(C(F)(F)F)c1` [Example-43, 6-(3,5-Bis-trifluoromethyl-phenyl)-4,7-dihydro-1-thia-4,5-diaza-cyclopenta[a]pen talene]: the half-inhibitory concentration (IC50) is > 1000 nM.

With `Brc1ccccc1-c1n[nH]c2c1Cc1sccc1-2` [Example-44, 6-(2-Bromo-phenyl)-4,7-dihydro-1-thia-4,5-diaza-cyclopenta[a]pentalene], the IC50 is > 1000 nM.

On to `COc1ccccc1Nc1n[nH]c2c1Cc1sccc1-2` [Example-45, (4,7-Dihydro-1-thia-4,5-diaza-cyclopenta[a]pentalen-6-yl)-(2-methoxy-phenyl)-amine], for which the IC50 was in the range of 100 to 499 nM.

`FC(F)(F)Oc1ccc(Nc2n[nH]c3c2Cc2sccc2-3)cc1` [Example-46, (4,7-Dihydro-1-thia-4,5-diaza-cyclopenta[a]pentalen-6-yl)-(4-trifluoromethoxy-phenyl)-amine]: the IC50 was 500 to 1000 nM.

Take `Brc1cccc(-c2n[nH]c3c2Cc2sccc2-3)c1` [Example-47, 6-(3-Bromo-phenyl)-4,7-dihydro-1-thia-4,5-diaza-cyclopenta[a]pentalene]: the IC50 was < 100 nM.

For `FC(F)(F)Oc1ccccc1Nc1n[nH]c2c1Cc1sccc1-2` [Example-48, (4,7-Dihydro-1-thia-4,5-diaza-cyclopenta[a]pentalen-6-yl)-(2-trifluoromethoxy-phenyl)-amine], the half-inhibitory concentration (IC50) was > 1000 nM.

As to `Clc1cc(Cl)cc(Nc2n[nH]c3c2Cc2sccc2-3)c1` [Example-49, (3,5-Dichloro-phenyl)-(4,7-dihydro-1-thia-4,5-diaza-cyclopenta[a]pentalen-6-yl)-amine], the concentration for half-maximal inhibition (IC50) lay within 100 to 499 nM.

Take `O=C1c2sccc2-c2[nH]nc(-c3cccc(Cl)c3)c21` [Example-50, 6-(3-Chloro-phenyl)-4H-1-thia-4,5-diaza-cyclopenta[a]pentalen-7-one]: the half-maximal inhibitory concentration (IC50) fell in the range of 100 to 499 nM.

`COc1ccccc1-c1n[nH]c2c1Cc1sccc1-2` [Example-51, 6-(2-Methoxy-phenyl)-4,7-dihydro-1-thia-4,5-diaza-cyclopenta[a]pentalene]: the IC50 is < 100 nM.

Regarding `Clc1ccc(Nc2n[nH]c3c2Cc2sccc2-3)cc1Cl` [Example-53, (3,4-Dichloro-phenyl)-(4,7-dihydro-1-thia-4,5-diaza-cyclopenta[a]pentalen-6-yl)-amine], the concentration for half-maximal inhibition (IC50) lay in the range of 100 to 499 nM.

`Clc1cccc(Nc2n[nH]c3c2Cc2sccc2-3)c1Cl` [Example-54, (2,3-Dichloro-phenyl)-(4,7-dihydro-1-thia-4,5-diaza-cyclopenta[a]pentalen-6-yl)-amine]: the half-inhibitory concentration (IC50) lay within 100 to 499 nM.

Take `O=S(=O)(c1ccc(Nc2n[nH]c3c2Cc2sccc2-3)cc1)N1CCCCC1` [Example-55, (4,7-Dihydro-1-thia-4,5-diaza-cyclopenta[a]pentalen-6-yl)-[4-(piperidine-1-sulfonyl)-phenyl]-amine]: the IC50 fell in the range of 100 to 499 nM.

As to `Nc1ccc(-c2n[nH]c3c2C(=O)c2sccc2-3)cc1` [Example-56, 6-(4-Amino-phenyl)-4H-1-thia-4,5-diaza-cyclopenta[a]pentalen-7-one], the IC50 is < 100 nM.

Regarding `Clc1cc(Cl)cc(-c2n[nH]c3c2Cc2sccc2-3)c1` [Example-57, 6-(3,5-Dichloro-phenyl)-4,7-dihydro-1-thia-4,5-diaza-cyclopenta[a]pentalene], the IC50 lay in the range of 100 to 499 nM.

As for `c1ccc(-c2n[nH]c3c2Cc2sccc2-3)nc1` [Example-58, 6-Pyridin-2-yl-4,7-dihydro-1-thia-4,5-diaza-cyclopenta[a]pentalene], the half-maximal inhibitory concentration (IC50) fell in the range of 100 to 499 nM.

Regarding `Nc1cccc(-c2n[nH]c3c2Cc2sccc2-3)c1` [Example-59, 3-(4,7-Dihydro-1-thia-4,5-diaza-cyclopenta[a]pentalen-6-yl)-phenylamine hydrochloride], the IC50 was in the range of 100 to 499 nM.

As to `c1cc(-c2n[nH]c3c2Cc2sccc2-3)ccn1` [Example-60, 6-Pyridin-4-yl-4,7-dihydro-1-thia-4,5-diaza-cyclopenta[a]pentalene], the IC50 was < 100 nM.

`[O-][n+]1ccc(-c2n[nH]c3c2Cc2sccc2-3)cc1` [Example-61, 6-(1-Oxy-pyridin-4-yl)-4,7-dihydro-1-thia-4,5-diaza-cyclopenta[a]pentalene]: the IC50 was 100 to 499 nM.

Turning to `c1cc(Nc2ccc(-c3n[nH]c4c3Cc3sccc3-4)cc2)ccn1` [Example-62, [4-(4,7-Dihydro-1-thia-4,5-diaza-cyclopenta[a]pentalen-6-yl)-phenyl]-pyridin-4-yl-amine hydrochloride], the IC50 is < 100 nM.

Take `c1cncc(Nc2ccc(-c3n[nH]c4c3Cc3sccc3-4)cc2)c1` [Example-63, [4-(4,7-Dihydro-1-thia-4,5-diaza-cyclopenta[a]pentalen-6-yl)-phenyl]-pyridin-3-yl-amine]: the IC50 is < 100 nM.

As to `Brc1ccc(-c2n[nH]c3c2Cc2sccc2-3)cn1` [Example-64, 6-(6-Bromo-pyridin-3-yl)-4,7-dihydro-1-thia-4,5-diaza-cyclopenta[a]pentalene], the half-maximal inhibitory concentration (IC50) fell in the range of 100 to 499 nM.

In the case of `COc1ccc(-c2n[nH]c3c2Cc2sc(-c4ccccc4)cc2-3)cc1` [Example-65, 6-(4-Methoxy-phenyl)-2-phenyl-4,7-dihydro-1-thia-4,5-diaza-cyclopenta[a]pentalene], the concentration for half-maximal inhibition (IC50) is < 100 nM.

With `Nc1ccc(-c2n[nH]c3c2Cc2sccc2-3)cn1` [Example-66, 5-(4,7-Dihydro-1-thia-4,5-diaza-cyclopenta[a]pentalen-6-yl)-pyridin-2-ylamine hydrochloride], the IC50 is < 100 nM.

Regarding `Brc1ccc(-c2n[nH]c3c2Cc2sc(Br)cc2-3)cn1` [Example-67, 2-Bromo-6-(6-bromo-pyridin-3-yl)-4,7-dihydro-1-thia-4,5-diaza-cyclopenta[a]pentalene], the IC50 was in the range of 100 to 499 nM.

Take `O=C1c2sccc2-c2[nH]nc(-c3ccc(Br)nc3)c21` [Example-68, 6-(6-Bromo-pyridin-3-yl)-4H-1-thia-4,5-diaza-cyclopenta[a]pentalen-7-one]: the half-inhibitory concentration (IC50) lay within 500 to 1000 nM.

As for `COc1ccc(-c2n[nH]c3c2Cc2sc(-c4ccc(F)cc4)cc2-3)cc1` [Example-71, 2-(4-Fluoro-phenyl)-6-(4-methoxy-phenyl)-4,7-dihydro-1-thia-4,5-diaza-cyclopenta[a]pentalene], the IC50 is < 100 nM.

For the molecule `COc1ccc(-c2n[nH]c3c2Cc2sc(-c4ccc(F)c(F)c4)cc2-3)cc1` [Example-72, 2-(3,4-Difluoro-phenyl)-6-(4-methoxy-phenyl)-4,7-dihydro-1-thia-4,5-diaza-cyclopenta[a]pentalene], the IC50 was < 100 nM.

`COc1ccc(-c2cc3c(s2)Cc2c(-c4ccc(OC)cc4)n[nH]c2-3)cc1` [Example-73, 2,6-Bis-(4-methoxy-phenyl)-4,7-dihydro-1-thia-4,5-diaza-cyclopenta[a]pentalene]: the IC50 is < 100 nM.

Turning to `COc1ccc(-c2n[nH]c3c2Cc2sc(-c4ccc(OC)c(OC)c4)cc2-3)cc1` [Example-74, 2-(3,4-Dimethoxy-phenyl)-6-(4-methoxy-phenyl)-4,7-dihydro-1-thia-4,5-diaza-cyclopenta[a]pentalene], the IC50 is < 100 nM.

Regarding `COc1ccc(-c2n[nH]c3c2Cc2sc(-c4ccc(O)c(OC)c4)cc2-3)cc1` [Example-75, 2-Methoxy-4-[6-(4-methoxy-phenyl)-4,7-dihydro-1-thia-4,5-diaza-cyclopenta[a]pentalen-2-yl]-phenol], the IC50 is < 100 nM.

As for `COc1ccc(-c2n[nH]c3c2Cc2sc(-c4ccoc4)cc2-3)cc1` [Example-77, 2-Furan-3-yl-6-(4-methoxy-phenyl)-4,7-dihydro-1-thia-4,5-diaza-cyclopenta[a]pentalene], the half-inhibitory concentration (IC50) was < 100 nM.

For the molecule `COc1ccc(-c2n[nH]c3c2Cc2sc(-c4cnc(N)nc4)cc2-3)cc1` [Example-79, 5-[6-(4-Methoxy-phenyl)-4,7-dihydro-1-thia-4,5-diaza-cyclopenta[a]pentalen-2-yl]-pyrimidin-2-ylamine], the concentration for half-maximal inhibition (IC50) is < 100 nM.

With `CN1CCN(c2ccc(-c3n[nH]c4c3Cc3sccc3-4)cc2)CC1` [Example-80, 6-[4-(4-Methyl-piperazin-1-yl)-phenyl]-4,7-dihydro-1-thia-4,5-diaza-cyclopenta[a]pentalene], the IC50 is < 100 nM.

On to `COc1ccc(-c2n[nH]c3c2Cc2sc(-c4ccc(N5CCN(C)CC5)nc4)cc2-3)cc1` [Example-81, 6-(4-Methoxy-phenyl)-2-[6-(4-methyl-piperazin-1-yl)-pyridin-3-yl]-4,7-dihydro-1-thia-4,5-diaza-cyclopenta[a]pentalene], for which the IC50 is < 100 nM.

In the case of `COc1ccc(-c2n[nH]c3c2Cc2sc(-c4ccc(OC)c(F)c4)cc2-3)cc1` [Example-83, 2-(3-Fluoro-4-methoxy-phenyl)-6-(4-methoxy-phenyl)-4,7-dihydro-1-thia-4,5-diaza-cyclopenta[a]pentalene], the half-maximal inhibitory concentration (IC50) was < 100 nM.

As to `c1cc2c(s1)Cc1c(-c3ccc(N4CCCC4)cc3)n[nH]c1-2` [Example-84, 6-(4-Pyrrolidin-1-yl-phenyl)-4,7-dihydro-1-thia-4,5-diaza-cyclopenta[a]pentalene], the IC50 was 100 to 499 nM.
